Assay results published in publication PMC5435703 (Scientific Reports, 2017).
Converted amounts (≈) assume the structure as drawn. Where two headings read alike, the source gives them in different places. Marks after values point to notes of the source that are not given here.

Legend:
MRSE 35984 [1] = assay: MIC broth microdilution assay; type: cell-based, Staphylococcus epidermidis; settings: for MIC: Staphylococcus epidermidis, MRSE
S. epi 12228 = assay: MIC broth microdilution assay; type: cell-based, Staphylococcus epidermidis
MRSA BAA-1707 [2] = assay: MIC broth microdilution assay; type: cell-based, Staphylococcus aureus; settings: Staphylococcus aureus
MRSA-2 = assay: MIC broth microdilution assay; type: cell-based, Staphylococcus aureus; settings: Staphylococcus aureus, MRSA; Table 1; read-out: MIC MRSA-2
MRSA-1 = assay: MIC broth microdilution assay; type: cell-based, Staphylococcus aureus; settings: Staphylococcus aureus, MRSA; Table 1; read-out: MIC MRSA-1
VRE 700221 [3] = assay: MIC broth microdilution assay; type: cell-based, Enterococcus faecium
[4] = Hemolysis assay with red blood cells; settings: human, pH 7.2
[5] = LDH release assay for HeLa cytotoxicity; type: cell-based; settings: human, HeLa cells; LDH release, 24 hours; tested at 25, 50 and 100 µM; read-out: HeLa Cytotox. IC50
MtB H37Ra = assay: MIC assay for Mycobacterium tuberculosis; type: cell-based
four MRSA isolates = assay: MIC assays, panel of four MRSA isolates; type: cell-based; settings: Staphylococcus aureus, range over isolates, read-out: MIC against a panel of four MRSA isolates
MRSA BAA-1707 [6] = assay: Calgary Biofilm Device (CBD) MBC/MBEC assay; type: cell-based, Staphylococcus aureus
MRSE 35984 [7] = assay: Calgary Biofilm Device (CBD) MBC/MBEC assay; type: cell-based, Staphylococcus epidermidis; settings: Staphylococcus epidermidis, MRSE; CBD, planktonic killing; read-out: MRSE 35984 MBC
VRE 700221 [8] = assay: Calgary Biofilm Device (CBD) MBC/MBEC assay; type: cell-based, Enterococcus faecium; settings: Enterococcus, VRE; CBD, planktonic killing; read-out: VRE 700221 MBC
MRSA BAA-44 = assay: MIC broth microdilution assay; type: cell-based; settings: Staphylococcus aureus; Table 1; read-out: MIC MRSA BAA-44
[9] = Table 1, read-out: MIC MRSE 35984
[10] = Staphylococcus epidermidis, 12228, Table 1, read-out: MIC S. epi 12228
[11] = Table 1, three independent experiments, read-out: MIC MRSA BAA-1707
[12] = single plate shown as picture, read-out: MIC (µM), MIC Assay against MRSA BAA-1707
[13] = Table 3, read-out: MRSE 35984 MIC
[14] = Enterococcus, VRE, Table 1, read-out: MIC VRE 700221
[15] = Enterococcus, VRE, Table 3, read-out: VRE 700221 MIC
[16] = Staphylococcus epidermidis, 12228, single plate shown as picture, read-out: MIC (µM), MIC Assay Against S. epidermidis 12228
[17] = Table 3, read-out: MRSA BAA-1707 MIC
[18] = Staphylococcus aureus, 24 h, CBD, planktonic killing, 24 hours treatment, read-out: MRSA BAA-1707 MBC

SMILES | MIC (S. epi 12228; [10]) [µM] | MIC (MRSA BAA-1707 [2]; [11]) [µM] | MIC (MRSA-2) [µM] | MIC (MRSA BAA-1707 [2]; [12]) [µM] | MIC (MRSA-1) [µM] | MIC (VRE 700221 [3]; [14]) [µM] | hemolysis at 1 h, 200 µM [4] [%] | IC50 at 24 h [5] [µM] | MIC (MRSA BAA-1707 [2]; [17]) [µM] | also measured
Oc1c(Br)cc(Br)c2nc3ccc(Br)cc3nc12 [HP 3] | 3.13 (≈ 1.35 µg/mL) | 0.2 (≈ 0.0866 µg/mL) | – | – | – | – | – | – | – | MIC (MRSE 35984 [1]; [9]): 3.13 µM (≈ 1.35 µg/mL)
Cc1cc(Br)c(O)c2nc3cccc(Br)c3nc12 [HP 13] | – | 1.17 (≈ 0.431 µg/mL) | 2.35 (≈ 0.865 µg/mL) | 0.78 (≈ 0.287 µg/mL) | – | – | – | – | – | –
Oc1c(Br)cc(Br)c2nc3ccc(Oc4ccccc4)cc3nc12 [HP 16] | – | – | – | – | 25 (≈ 11.2 µg/mL) | – | – | – | – | –
Cc1ccc2nc3c(O)c(Br)cc(Br)c3nc2c1C [HP 19] | 6.25 (≈ 2.39 µg/mL) | 0.15 (≈ 0.0573 µg/mL) | – | 0.1 (≈ 0.0382 µg/mL) | – | 0.15 to 1.56 (≈ 0.0573 to 0.596 µg/mL) | 5.3 | > 100 | 0.15 (≈ 0.0573 µg/mL) | MIC (MRSE 35984 [1]; [13]): 0.3 µM (≈ 0.115 µg/mL); MIC (MRSE 35984 [1]; single plate shown as picture, read-out: MIC (µM), MIC Assay Against MRSE 35984): 0.2 µM (≈ 0.0764 µg/mL); MIC (VRE 700221 [3]; [15]): 0.15 µM (≈ 0.0573 µg/mL); MIC (VRE 700221 [3]; Enterococcus, VRE, single plate shown as picture, read-out: MIC (µM), MIC Assay Against VRE 700221): 0.2 µM (≈ 0.0764 µg/mL); MIC (S. epi 12228; [16]): 6.25 µM (≈ 2.39 µg/mL)
CCc1cccc2nc3c(O)c(Br)cc(C)c3nc12 [HP 6] | – | – | – | – | 0.78 (≈ 0.247 µg/mL) | 0.78 to 2.35 (≈ 0.247 to 0.745 µg/mL) | – | – | – | MIC (MRSE 35984 [1]; [9]): 0.3 to 0.78 µM (≈ 0.0952 to 0.247 µg/mL); MIC MRSE 35984 (MRSE 35984 [1]; Table 1): 0.30^a µM; MIC (VRE 700221 [3]; Table 1, read-out: MIC VRE 700221): 0.78 µM (≈ 0.247 µg/mL)
Oc1c(Br)cc(Br)c2nc3ccc(Cl)cc3nc12 [HP 22] | 12.5 (≈ 4.86 µg/mL) | 0.15 (≈ 0.0583 µg/mL) | – | 0.1 (≈ 0.0388 µg/mL) | 0.15 (≈ 0.0583 µg/mL) | – | ≤ 1 | > 100 | 0.15 (≈ 0.0583 µg/mL) | MIC (MtB H37Ra): 2.4 µg/mL; MIC (MtB H37Ra; 168 h, seven days): 6.25 µM; MIC (four MRSA isolates): 0.05 to 0.59 µM (≈ 0.0194 to 0.229 µg/mL); MIC (S. epi 12228; [16]): 12.5 µM (≈ 4.86 µg/mL)
CN[C@H](CC(C)C)C(=O)N[C@H]1C(=O)N[C@@H](CC(N)=O)C(=O)N[C@H]2C(=O)N[C@H]3C(=O)N[C@H](C(=O)N[C@H](C(=O)O)c4cc(O)cc(O)c4-c4cc3ccc4O)[C@H](O)c3ccc(c(Cl)c3)Oc3cc2cc(c3O[C@@H]2O[C@H](CO)[C@@H](O)[C@H](O)[C@H]2O[C@H]2C[C@](C)(N)[C@H](O)[C@H](C)O2)Oc2ccc(cc2Cl)[C@H]1O [vancomycin, reference compound] | – | – | – | – | – | – | – | – | – | MIC (VRE 700221 [3]; Enterococcus, VRE, read-out: MIC VRE 700221): > 100 µM; MIC (VRE 700221 [3]; Enterococcus, VRE, read-out: VRE 700221 MIC): > 100 µM; MRSA-1707 Biofilm Eradication MBEC (MRSA BAA-1707 [6]; Figure 7A, single CBD plate): > 2000 µM; MBC (MRSA BAA-1707 [6]; Staphylococcus aureus, Figure 7A, single CBD plate, read-out: MRSA-1707 Planktonic Eradication MBC): 3.9 µM (≈ 5.65 µg/mL); MBC (MRSA BAA-1707 [6]; Staphylococcus aureus, CBD, planktonic killing, 24 hours treatment, read-out: MRSA BAA-1707 MBC): 3.9 µM (≈ 5.65 µg/mL); MBC (MRSE 35984 [7]): 3 µM (≈ 4.35 µg/mL); MIC (S. epi 12228; Staphylococcus epidermidis, 12228, read-out: MIC S. epi 12228): 1.17 µM (≈ 1.7 µg/mL); MBC (VRE 700221 [8]): > 200 µM
Cc1cc(Cl)c2nc3c(C)cc(Br)c(O)c3nc2c1 [HP 9] | – | – | 2.35 (≈ 0.793 µg/mL) | – | 1.56 (≈ 0.527 µg/mL) | – | ≤ 1 | > 100 | – | MIC (MtB H37Ra; 168 h, seven days): 50 µM; MIC (MRSA BAA-44): 1.56 µM (≈ 0.527 µg/mL); MBC (MRSA BAA-1707 [6]; [18]): > 200 µM; MBC (MRSE 35984 [7]): 12.5 µM (≈ 4.22 µg/mL); MBC (VRE 700221 [8]): 12.5 µM (≈ 4.22 µg/mL)
CC(=O)NC[C@H]1CN(c2ccc(N3CCOCC3)c(F)c2)C(=O)O1 [linezolid, reference compound] | – | 12.5 (≈ 4.22 µg/mL) | 3.13 (≈ 1.06 µg/mL) | – | – | 3.13 (≈ 1.06 µg/mL) | – | – | 12.5 (≈ 4.22 µg/mL) | MIC (MRSE 35984 [1]; [9]): 3.13 µM (≈ 1.06 µg/mL); MIC (MRSE 35984 [1]; [13]): 3.13 µM (≈ 1.06 µg/mL); MIC (VRE 700221 [3]; [15]): 3.13 µM (≈ 1.06 µg/mL); MRSA BAA-1707 MBEC (MRSA BAA-1707 [6]; CBD, biofilm eradication, 24 hours treatment): > 2000 µM; MBC (MRSA BAA-1707 [6]; Staphylococcus aureus, 24 h, read-out: MRSA BAA-1707 MBC): 31.3 µM (≈ 10.6 µg/mL); minimal effective concentration (MRSA BAA-1707 [6]; Staphylococcus aureus, 24 h, read-out: MRSA BAA-1707 MBEC): > 2000 µM
Cc1cc(Br)c(O)c2nc3ccccc3nc12 [HP 4] | 3.13 (≈ 0.905 µg/mL) | 3.13 (≈ 0.905 µg/mL) | 3.13 (≈ 0.905 µg/mL) | 3.13 (≈ 0.905 µg/mL) | 50 (≈ 14.5 µg/mL) | 3.13 (≈ 0.905 µg/mL) | ≤ 1 | > 100 | 3.13 (≈ 0.905 µg/mL) | MIC (VRE 700221 [3]; [15]): 3.13 µM (≈ 0.905 µg/mL); MIC (MRSA BAA-44): 50 µM (≈ 14.5 µg/mL); MBC (MRSA BAA-1707 [6]; [18]): 46.9 µM (≈ 13.6 µg/mL); MBC (MRSE 35984 [7]): 150 µM (≈ 43.4 µg/mL)
[H]/N=C(/N)N[C@H]1[C@H](O)[C@@H](O)[C@H](O[C@@H]2O[C@@H](C)[C@](O)(C=O)[C@H]2O[C@@H]2O[C@@H](CO)[C@H](O)[C@@H](O)[C@@H]2NC)[C@@H](N/C(N)=N\[H])[C@@H]1O [streptomycin, reference compound] | – | – | – | – | – | – | – | – | – | MIC (MtB H37Ra; 168 h, seven days): 1.32 µM
Cc1cc(Br)c(O)c2nc3cc(Cl)ccc3nc12 [HP 12] | – | – | – | – | 75 (≈ 24.3 µg/mL) | 12.5 (≈ 4.04 µg/mL) | – | – | – | –
